Data as given in PMC4021201, “Repositioning: the fast track to new anti-malarial medicines?” (Malaria Journal, 2014).
One block for each molecule: values may come before it. Starred links: 1 amine or outer side, 2 acyl side, 3 side chain; linkers in the order of their positions; H or OH if unused. Positions of bridges follow the written chain, without caps; N, C: chain ends. Non-standard residues stand in square brackets, D forms with d. Residues, ends and D or L forms follow the SMILES beside them. Chains are numbered I, II in the order given. Actinocin(9to1) = Cc1c2oc3c(C)ccc(C(=O)[*:1])c3nc-2c(C(=O)[*:2])c(N)c1=O; NMeV = CN[C@H](C(=O)O)C(C)C; Sar = CNCC(=O)O

Columns and labels:
P. falciparum K1 [1] = assay: SYBR I dye DNA staining assay (Pfizer), P. falciparum K1
Experimental: (§1) Cultures of P. falciparum 3D7 and K1 (both from David Baker, LSHTM) were maintained in O+ human erythrocytes (Research Red Cells and Blood Transfusion Service). 384-well assay plates contained 250 nL of compound at a serial dilution of 1:3 in 100% DMSO, starting from 200 µM (in the plate i.e. 20 µM final) and minimum and maximum controls. After addition of 50 μL of infected erythrocytes per well, plates were incubated at 37°C for three days in 5% CO2, 5% O2 and 90% N2. […] Percent anti-malarial activity was calculated relative to the minimum and maximum controls for each of the 11 drug concentrations and EC50 values determined from the resulting data plot.

P. falciparum 3D7 [2] = assay: SYBR I dye DNA staining assay (Pfizer), P. falciparum 3D7
Experimental: as §1

P. falciparum 3D7 [3] = assay: SYBR I dye DNA staining assay (SJCRH), P. falciparum 3D7; details: read-out: EC50 3D7
Experimental: (§2) SJCRH used the SYBR® I dye DNA staining assay, which measures proliferation of P. falciparum in human erythrocytes [27]. Plasmodium falciparum strains 3D7 (chloroquine-sensitive) and K1 (chloroquine-resistant) (American Type Culture Collection [ATCC], Manassas, VA, USA) were maintained using established methods [28]. The assay method is as previously described [29]. […] EC50 values were calculated with the robust investigation of screening experiments (RISE) algorithm with a four-parameter logistic equation.
(§3) This group used the SYBR® I dye DNA staining assay, which measures proliferation of P. falciparum in human erythrocytes [1]. Plasmodium falciparum strains 3D7 (chloroquine-sensitive) and K1 (chloroquine-resistant) (American Type Culture Collection [ATCC], Manassas, VA) were maintained in group O? erythrocytes (Key Biologics, LLC, Memphis, TN) using established methods [2]. Serial dilutions of the test compound in DMSO were prepared to provide 10 concentrations for each compound. […] After addition of 10 µL mixed DNA dye solution in PBS per test well (10× SYBR® I, [Invitrogen, Carlsbad, CA]), 0.5% [vol/vol] Triton X-100, 0.5 mg/mL saponin), plates were shaken for 1 min at 750 rpm and incubated in the dark for 90 min. Fluorescence was measured with an EnVision®spectrophotometer (PerkinElmer, Waltham, MA) [3]. […] EC50 values were calculated with the robust investigation of screening experiments (RISE) algorithm with a four-parameter logistic equation.

P. falciparum K1 [4] = assay: SYBR I dye DNA staining assay (SJCRH), P. falciparum K1; details: read-out: EC50 K1
Experimental: as §2, §3

[5] = set-up: method as in unpublished data provided by Pfizer Inc; details: ref unpublished data provided by Pfizer Inc; cited from earlier work
[6] = test system: P. falciparum Pf3D7^0087/N9; assay: Plasmodium falciparum huSCID humanized mouse model, four-day test; details: 10, 30 mg/kg sc target doses, up to maximum tolerated dose
Experimental: In vivo testing using this model was performed by GSK at Tres Cantos, against P. falciparum 3D7 (in vivo strain Pf3D7^0087/N9generated by GSK using Pf3D7 obtained from Eduardo Dei-Cas, Institute Pasteur, Lille, France [36]) growing in peripheral blood of female NOD-scid IL-2Rγ^null mice engrafted with human erythrocytes, i e, a ‘humanized’ mouse model, following published protocols [36, 37]. Briefly, animals were infected intravenously with 20×10^6 infected erythrocytes on day 0. […] Dosing was initiated at the maximum tolerated dose in mice on day 3 after infection and continued once daily for four days. Each experimental group was n = 3 mice unless otherwise stated. Control animals received vehicle only and a quality control assay used chloroquine at target doses of 3 mg/kg and 7 mg/kg. Venous blood samples for parasitology (2 μL) were taken at days 3, 5, and 7 after infection. Anti-malarial efficacy was assessed using a standard four-day test (i e, at day 7) and blood parasitaemia was measured by fluorescence-activated cell sorting (FACS) analysis [38]. The limit of detection (per cent of P. falciparum) was 0.01%. The number of parasites ×10^6 cells was recorded and data were analysed by non-linear fitting to a logistic equation of log10 (per cent parasitaemia at day 7 after infection) versus the dose level administered.
Per cent parasitaemia at day 7 after infection in treated versus control animals was analysed using a one factor ANOVA with Tukey’s post-test analysis. […] ED90 was calculated similarly. Analysis was performed using WinNonlin 5.2 and GraphPad Prism 5.0.

[7] = Pharmacokinetics in P. falciparum-infected humanized mice; details: for Cmax / Tmax: NOD-scid IL-2Rγ^null, mouse, sc; for Cmax / Tmax / AUC (0–t): whole blood; for DNAUC(0–t): dose-normalized AUC(0–t); for DNAUC(0–t) / AUC (0–t): mean (SD)
Experimental: The pharmacokinetics of compounds after oral administration was determined concurrently in the same mice used for the therapeutic efficacy assay. Samples were taken at 0.25, 0.5, 1, 3, 6, 8, and 24 hours after the first dose. Compound levels were measured in 25 μL blood samples that were mixed with 25 μL of saponin (0.1% in water) and processed under standard liquid–liquid extraction conditions [39]. Pharmacokinetic parameters were calculated using WinNonlin 5.2 non-compartmental analysis.

[8] = Plasmodium falciparum, 3D7, 72 h
[9] = Plasmodium falciparum, K1, 72 h
[10] = target dose 10 mg/kg subcutaneous (experimental 6.4 CEP-701, 8.3 CEP-1347)
[11] = target dose 30 mg/kg subcutaneous (experimental 15.0 CEP-701, 22.0 CEP-1347)
[12] = mean (95% CI), SYBR I fluorescence assay, chloroquine-sensitive strain, 72 h
[13] = mean (95% CI), SYBR I fluorescence assay, chloroquine-resistant strain, 72 h

EC50 (P. falciparum K1 [1]; read-out: EC50 K1, mean (95% CI), Pfizer SYBR I fluorescence assay): 400 nM
EC50 (P. falciparum 3D7 [2]; read-out: EC50 3D7, mean (95% CI), Pfizer SYBR I fluorescence assay): 700 nM
SMILES: CCNCc1cncc(-c2ccc3[nH]nc(-c4nc5c(F)cc(F)cc5[nH]4)c3c2)c1C [AG-024322]

EC50 (P. falciparum 3D7 [3]; [8]): 20 nM
EC50 (P. falciparum K1 [4]; [9]): 80 nM
SMILES: CC(C)C[C@H](NC(=O)[C@H](Cc1ccccc1)NC(=O)c1cnccn1)B(O)O [Bortezomib]

EC50 (P. falciparum 3D7 [3]; [8]): 220 nM
EC50 (P. falciparum K1 [4]; [9]): 650 nM
SMILES: COc1cc(Nc2c(C#N)cnc3cc(OCCCN4CCN(C)CC4)c(OC)cc23)c(Cl)cc1Cl [Bosutinib]

EC50 (P. falciparum K1 [1]; Plasmodium falciparum, K1, read-out: EC50 K1): 800 nM
EC50 (P. falciparum 3D7 [2]; Plasmodium falciparum, 3D7, read-out: EC50 3D7): 1100 nM
SMILES: COc1ccc(C(=O)c2cn(C(C)C)c3ncnc(N)c23)cc1NC(=O)Nc1ccc(Cl)cc1Cl [CE-245677]
human plasma level with significant central nervous system adverse events [5]: ~ 1.5 μM

EC50 (P. falciparum 3D7 [3]; [8]): 60 nM
EC50 (P. falciparum K1 [4]; [9]): 60 nM
SMILES: Cc1cc(N)c2ccccc2[n+]1CCCCCCCCCC[n+]1c(C)cc(N)c2ccccc21 [Dequalinium]

EC50 (P. falciparum 3D7 [3]; [12]): 840 nM
EC50 (P. falciparum K1 [4]; [13]): 500 nM
SMILES: Cc1c(N(C)CS(=O)(=O)O)c(=O)n(-c2ccccc2)n1C [Dipyrone]

EC50 (P. falciparum 3D7 [3]; [8]): 210 nM
EC50 (P. falciparum K1 [4]; [9]): 200 nM
SMILES: COc1cccc2c1C(=O)c1c(O)c3c(c(O)c1C2=O)C[C@@](O)(C(=O)CO)C[C@@H]3O[C@H]1C[C@H](N)[C@H](O)[C@H](C)O1 [Doxorubicin]

EC50 (P. falciparum 3D7 [3]; [8]): 560 nM
EC50 (P. falciparum K1 [4]; [9]): > 7370 nM
SMILES: CS(=O)(=O)CCNCc1ccc(-c2ccc3ncnc(Nc4ccc(OCc5cccc(F)c5)c(Cl)c4)c3c2)o1 [Lapatinib]

The next lines start with the molecule.

SMILES: Nc1nc(N)c2nc(CNc3ccc(C(=O)N[C@@H](CCC(=O)O)C(=O)O)cc3)cnc2n1 [Aminopterin]
EC50 (P. falciparum 3D7 [3]; [8]): 320 nM
EC50 (P. falciparum K1 [4]; [9]): 1250 nM

SMILES: CCSCc1ccc2c(c1)c1c3c(c4c5cc(CSCC)ccc5n5c4c1n2[C@H]1C[C@](O)(C(=O)OC)[C@]5(C)O1)CNC3=O [CEP-1347]
reduction of parasitaemia versus vehicle [6]: did not reach statistical significance
Cmax ([7]; 10 mg/kg): 830 ng/mL
Tmax ([7]; 10 mg/kg): 4.8 h
Cmax ([7]; 30 mg/kg): 730 ng/mL
Tmax ([7]; 30 mg/kg): 6 h
DNAUC(0–t) [7, 10]: 0.98 (0.22) μg · h · mL^−1 · day^−1
DNAUC(0–t) [7, 11]: 0.45 (0.092) μg · h · mL^−1 · day^−1
AUC (0–t) [7, 10]: 8.1 (1.8) μg · h · mL
AUC (0–t) [7, 11]: 9.9 (2.1) μg · h · mL

SMILES: CC(=O)[C@@]1(O)CC[C@H]2[C@@H]3C=C(Cl)C4=CC(=O)[C@@H]5C[C@@H]5[C@]4(C)[C@H]3CC[C@@]21C [Cyproterone]
EC50 (P. falciparum 3D7 [3]; [12]): 560 nM
EC50 (P. falciparum K1 [4]; [13]): 890 nM

SMILES: Cc1c2oc3c(C)ccc(C(=O)N[C@@H]4C(=O)N[C@H](C(C)C)C(=O)N5CCC[C@H]5C(=O)N(C)CC(=O)N(C)[C@@H](C(C)C)C(=O)O[C@@H]4C)c3nc-2c(C(=O)N[C@@H]2C(=O)N[C@H](C(C)C)C(=O)N3CCC[C@H]3C(=O)N(C)CC(=O)N(C)[C@@H](C(C)C)C(=O)O[C@@H]2C)c(N)c1=O [Dactinomycin] (I: T[dV]P[Sar][NMeV] / II: T[dV]P[Sar][NMeV]; ester I:1-I:C, II:1-II:C; linker I:N-II:N via Actinocin(9to1))
EC50 (P. falciparum 3D7 [3]; [8]): 0.9 nM
EC50 (P. falciparum K1 [4]; [9]): 1 nM

SMILES: CN(CCCCCCCCCCN(C)C(=O)Oc1cccc([N+](C)(C)C)c1)C(=O)Oc1cccc([N+](C)(C)C)c1 [Demecarium]
EC50 (P. falciparum 3D7 [3]; [8]): 510 nM
EC50 (P. falciparum K1 [4]; [9]): 300 nM

SMILES: C[C@]12O[C@H](C[C@]1(O)CO)n1c3ccccc3c3c4c(c5c6ccccc6n2c5c31)CNC4=O [Lestaurtinib]
reduction of parasitaemia versus vehicle [6]: did not reach statistical significance
EC50 (P. falciparum 3D7 [3]; [8]): 490 nM
Cmax ([7]; 10 mg/kg): 630 ng/mL
Tmax ([7]; 10 mg/kg): 0.78 h
Cmax ([7]; 30 mg/kg): 2800 ng/mL
Tmax ([7]; 30 mg/kg): 4 h
DNAUC(0–t) [7, 10]: 0.44 (0.072) μg · h · mL^−1 · day^−1
DNAUC(0–t) [7, 11]: 1.6 (0.47) μg · h · mL^−1 · day^−1
AUC (0–t) [7, 10]: 2.8 (0.46) μg · h · mL
AUC (0–t) [7, 11]: 23.8 (6.8) μg · h · mL
EC50 (P. falciparum K1 [4]; [9]): 340 nM
